The source made the active and inactive calls.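 Rule for the calls: active = fitted half-maximal concentration for change in GFP expression of 33 µM or less; inactive = the rest.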
Assay: concentration-dependent AGP1-GFP change, TOR pathway – cell-based, flow cytometry, S. cerevisiae, MLPCN hits, dose response (AID 2743)
Conditions: S. cerevisiae AGP1-GFP strain, flow cytometry GFP, 3 h; at 33 µM (top of the series)

Q: For `O=[N+]([O-])c1ccc(-c2cn3nc(-c4ccccc4)c(-c4ccccc4)nc3n2)cc1`, which GFP fluorescence (kMESF) is on record?
A: Its GFP fluorescence (kMESF) is 39.6 kMESF (inactive).

Q: Which GFP fluorescence (kMESF) does the source give for `CCCCC1OC23CCCCC2C(C#N)(C(=N)O3)C1(C#N)C#N` (stereo not given) here?
A: Its GFP fluorescence (kMESF) is 43.3 kMESF (inactive).

Q: Which GFP fluorescence (kMESF) does the source give for `CC(=O)Oc1ccc(/C=c2\sc3ncnn3c2=O)cc1` here?
A: Its GFP fluorescence (kMESF) is 36.7 kMESF (inactive).

Q: Which GFP fluorescence (kMESF) does the source give for `O=C(NC(=S)NNC(=O)c1cnccn1)c1ccc(Cl)cc1` here?
A: Its GFP fluorescence (kMESF) is 37.6 kMESF (inactive).

Q: With `O=C1C(Cl)=C(NCCc2ccccc2)C(=O)N1CCc1ccccc1` as the molecule, how does the GFP fluorescence (kMESF) read?
A: Its GFP fluorescence (kMESF) is 43.3 kMESF (inactive).

Q: Which GFP fluorescence (kMESF) does the source give for `CC(C)(C)c1cc(C(c2cccnc2)N2CCN(CCO)CC2)cc(C(C)(C)C)c1O` (stereo not given) here?
A: The GFP fluorescence (kMESF) was 42.2 kMESF (inactive).

Q: For `Cc1cc(NC(=O)c2cccnc2Cl)ccc1NC(=O)c1cc2ccccc2o1`, which GFP fluorescence (kMESF) is on record?
A: Its GFP fluorescence (kMESF) is 42.4 kMESF (inactive).

Q: With `COc1cc(CNC(=O)CCCCCCC(C)C)ccc1O` as the molecule, how does the GFP fluorescence (kMESF) read?
A: The GFP fluorescence (kMESF) was 46.8 kMESF (inactive).

Q: With `COc1ccccc1C(=O)NNC(=S)NC(=O)c1ccco1` as the molecule, how does the GFP fluorescence (kMESF) read?
A: Its GFP fluorescence (kMESF) is 38.7 kMESF (inactive).

Q: With `CCN(CC)c1ccc(/C=C2/C(=O)c3ccc(C(=O)O)cc3C2=O)cc1` as the molecule, how does the GFP fluorescence (kMESF) read?
A: The GFP fluorescence (kMESF) was 655 kMESF (inactive).

Q: Which GFP fluorescence (kMESF) does the source give for `COc1ccc(-c2cc3nc4n(c(=O)c3s2)CCC4)cc1` here?
A: The GFP fluorescence (kMESF) was 23.3 kMESF (inactive).

Q: For `O=C1C=CC(=O)N1c1ccc(O)cc1`, which GFP fluorescence (kMESF) is on record?
A: Its GFP fluorescence (kMESF) is 48.3 kMESF (inactive).

Q: For `O=C1C2C3C=CC(CO)(O3)C2C(=O)N1c1ccccc1-c1ccccc1` (stereo not given), which GFP fluorescence (kMESF) is on record?
A: The GFP fluorescence (kMESF) was 36.3 kMESF (inactive).

Q: Which GFP fluorescence (kMESF) does the source give for `Cc1ccc(NC(=O)c2ccc(Cl)c(N3C(=O)C=CC3=O)c2)cc1` here?
A: Its GFP fluorescence (kMESF) is 27.1 kMESF (inactive).

Q: For `Cc1cccc(C(=O)NC(=S)NNC(=O)Cc2ccccc2)c1`, which GFP fluorescence (kMESF) is on record?
A: Its GFP fluorescence (kMESF) is 37.6 kMESF (inactive).

Q: Which GFP fluorescence (kMESF) does the source give for `CCc1nc2ccccc2c(=O)n1NC(=O)c1c(O)c2cccc3c2n(c1=O)CCC3` here?
A: The GFP fluorescence (kMESF) was 18.3 kMESF (inactive).

Q: With `COc1ccc(CCNC2=C(Cl)C(=O)N(CCc3ccc(OC)c(OC)c3)C2=O)cc1OC` as the molecule, how does the GFP fluorescence (kMESF) read?
A: Its GFP fluorescence (kMESF) is 41.5 kMESF (inactive).

Q: Which GFP fluorescence (kMESF) does the source give for `O=C1c2cccc3c([N+](=O)[O-])ccc(c23)C(=O)N1c1ccccn1` here?
A: Its GFP fluorescence (kMESF) is 35.2 kMESF (inactive).

Q: Which GFP fluorescence (kMESF) does the source give for `O=C(Oc1cccc2cccnc12)c1ccc(Br)o1` here?
A: The GFP fluorescence (kMESF) was 38.2 kMESF (inactive).

Q: Which GFP fluorescence (kMESF) does the source give for `O=C1C(Cl)=C(N2CCN(Cc3ccccc3)CC2)C(=O)N1c1ccccc1` here?
A: Its GFP fluorescence (kMESF) is 43.8 kMESF (inactive).

Q: Which GFP fluorescence (kMESF) does the source give for `N/C(=N\OC(=O)c1cccc(Br)c1)c1ccccc1` here?
A: Its GFP fluorescence (kMESF) is 21.7 kMESF (inactive).

Q: With `O=C(O)C1Sc2[nH]c(=O)sc2C2c3cc(Br)ccc3OC(=O)C12` (stereo not given) as the molecule, how does the GFP fluorescence (kMESF) read?
A: Its GFP fluorescence (kMESF) is 38.7 kMESF (inactive).

Q: Which GFP fluorescence (kMESF) does the source give for `O=C(CCS(=O)(=O)c1ccccc1)Nc1nc(-c2ccccn2)cs1` here?
A: Its GFP fluorescence (kMESF) is 35.9 kMESF (inactive).

Q: Which GFP fluorescence (kMESF) does the source give for `COc1cccc2sc(Nc3nc(-c4ccccn4)cs3)nc12` here?
A: The GFP fluorescence (kMESF) was 34.7 kMESF (inactive).

Q: Which GFP fluorescence (kMESF) does the source give for `O=C(NC(=S)Nc1ccc2oc(=O)ccc2c1)c1cccc(Cl)c1` here?
A: The GFP fluorescence (kMESF) was 29.8 kMESF (inactive).

Q: For `CS(=O)(=O)N1N=C(c2ccccc2)CC1c1ccc2c(c1)OCO2` (stereo not given), which GFP fluorescence (kMESF) is on record?
A: Its GFP fluorescence (kMESF) is 126 kMESF (inactive).

Q: For `CC(C)(C)C(=O)NC(=S)NNC(=O)c1sc2ccccc2c1Cl`, which GFP fluorescence (kMESF) is on record?
A: The GFP fluorescence (kMESF) was 34.2 kMESF (inactive).

Q: For `O=C1C=C(c2ccccc2)C(=O)N1Nc1ccccc1`, which GFP fluorescence (kMESF) is on record?
A: Its GFP fluorescence (kMESF) is 40.8 kMESF (inactive).

Q: For `O=C(/C=C/c1ccccc1Cl)c1ccccc(=O)c1O`, which GFP fluorescence (kMESF) is on record?
A: The GFP fluorescence (kMESF) was 6.58 kMESF (inactive).

Q: For `CCN(CC)c1ccc2cc(-c3nc4ccccc4[nH]3)c(=O)oc2c1`, which GFP fluorescence (kMESF) is on record?
A: Its GFP fluorescence (kMESF) is 48.4 kMESF (inactive).

Q: Which GFP fluorescence (kMESF) does the source give for `O=C(Nc1nc2ccc(F)cc2s1)c1ccccn1` here?
A: Its GFP fluorescence (kMESF) is 41.4 kMESF (inactive).

Q: For `O=C1C=C(c2ccc(Cl)cc2)C(=O)N1Nc1ccccc1`, which GFP fluorescence (kMESF) is on record?
A: Its GFP fluorescence (kMESF) is 24.4 kMESF (inactive).

Q: With `CN1C(=O)/C(=N\OC(=O)c2cccc3ccccc23)c2ccccc21` as the molecule, how does the GFP fluorescence (kMESF) read?
A: The GFP fluorescence (kMESF) was 38.2 kMESF (inactive).

Q: For `Cc1ccc(/C(N)=N/OC(=O)c2ccc(F)cc2)cc1`, which GFP fluorescence (kMESF) is on record?
A: Its GFP fluorescence (kMESF) is 23.1 kMESF (inactive).

Q: Which GFP fluorescence (kMESF) does the source give for `Cc1cccc(N=Nc2ccc(O)c3ncccc23)c1` here?
A: Its GFP fluorescence (kMESF) is 40.1 kMESF (inactive).

Q: For `CC(C)(C)C1C/C(=C/c2ccccn2)C(=O)/C(=C/c2ccccn2)C1` (stereo not given), which GFP fluorescence (kMESF) is on record?
A: Its GFP fluorescence (kMESF) is 32.6 kMESF (inactive).

Q: With `Cc1ccc(S(=O)(=O)Cc2cc(F)c([N+](=O)[O-])cc2[N+](=O)[O-])cc1` as the molecule, how does the GFP fluorescence (kMESF) read?
A: Its GFP fluorescence (kMESF) is 37 kMESF (inactive).

Q: Which GFP fluorescence (kMESF) does the source give for `CCn1c(=O)c(C(=O)Nc2nc3ccccc3[nH]2)c(O)c2ccccc21` here?
A: The GFP fluorescence (kMESF) was 12.8 kMESF (inactive).

Q: With `COc1cccc(/C=N/Nc2ncc(C(F)(F)F)cc2Cl)c1O` as the molecule, how does the GFP fluorescence (kMESF) read?
A: Its GFP fluorescence (kMESF) is 34.3 kMESF (inactive).

Q: Which GFP fluorescence (kMESF) does the source give for `Cc1ccc(N/N=C(\C#N)C(N)=S)c(C)c1` here?
A: Its GFP fluorescence (kMESF) is 38 kMESF (inactive).

Q: For `O=C1c2cccc3c([N+](=O)[O-])ccc(c23)C(=O)N1CCc1ccccn1`, which GFP fluorescence (kMESF) is on record?
A: Its GFP fluorescence (kMESF) is 44.1 kMESF (inactive).

Q: With `COc1ccc(C(=O)NNC(=S)NC(=O)/C=C/c2cccs2)cc1` as the molecule, how does the GFP fluorescence (kMESF) read?
A: The GFP fluorescence (kMESF) was 52.8 kMESF (inactive).

Q: With `COc1ccc2c(/C=C/c3cc[n+](C)cc3)c[nH]c2c1` as the molecule, how does the GFP fluorescence (kMESF) read?
A: The GFP fluorescence (kMESF) was 44.4 kMESF (inactive).

Q: Which GFP fluorescence (kMESF) does the source give for `CC1=NOC(=O)/C1=C\c1ccc(-c2cc(Cl)ccc2Cl)o1` here?
A: Its GFP fluorescence (kMESF) is 42.3 kMESF (inactive).

Q: With `Cc1nn(C)c(C)c1N1C(=O)c2cccc3c(Br)ccc(c23)C1=O` as the molecule, how does the GFP fluorescence (kMESF) read?
A: Its GFP fluorescence (kMESF) is 40.8 kMESF (inactive).
